Measurements: ChEMBL document CHEMBL1201862, “PubChem BioAssay data set” (2004)
Activity calls are given as the source filed them.

Legend:
P388/ADR = test: cells; assay type: functional; conditions: Mus musculus
SN12K1 = test: cells; assay type: functional; conditions: Homo sapiens
P388 = test: cells; assay type: functional; conditions: Mus musculus
HEK293 = test: inhibitors of LMP1-driven NF-kB reporter, dose response, cell-based, HEK293, luciferase, cherry-pick (AID 588343); assay type: functional; conditions: Homo sapiens
[1] = molecular target: T1, Eukaryotic translation initiation factor 2-alpha kinase 3 (Homo sapiens, UniProt Q9NZJ5); test: Dose response cell-based high-throughput screening assay to measure PERK inhibition. [Related pubchem assays: 1416 ]; assay type: functional
T1 sequence (Q9NZJ5 whole entry): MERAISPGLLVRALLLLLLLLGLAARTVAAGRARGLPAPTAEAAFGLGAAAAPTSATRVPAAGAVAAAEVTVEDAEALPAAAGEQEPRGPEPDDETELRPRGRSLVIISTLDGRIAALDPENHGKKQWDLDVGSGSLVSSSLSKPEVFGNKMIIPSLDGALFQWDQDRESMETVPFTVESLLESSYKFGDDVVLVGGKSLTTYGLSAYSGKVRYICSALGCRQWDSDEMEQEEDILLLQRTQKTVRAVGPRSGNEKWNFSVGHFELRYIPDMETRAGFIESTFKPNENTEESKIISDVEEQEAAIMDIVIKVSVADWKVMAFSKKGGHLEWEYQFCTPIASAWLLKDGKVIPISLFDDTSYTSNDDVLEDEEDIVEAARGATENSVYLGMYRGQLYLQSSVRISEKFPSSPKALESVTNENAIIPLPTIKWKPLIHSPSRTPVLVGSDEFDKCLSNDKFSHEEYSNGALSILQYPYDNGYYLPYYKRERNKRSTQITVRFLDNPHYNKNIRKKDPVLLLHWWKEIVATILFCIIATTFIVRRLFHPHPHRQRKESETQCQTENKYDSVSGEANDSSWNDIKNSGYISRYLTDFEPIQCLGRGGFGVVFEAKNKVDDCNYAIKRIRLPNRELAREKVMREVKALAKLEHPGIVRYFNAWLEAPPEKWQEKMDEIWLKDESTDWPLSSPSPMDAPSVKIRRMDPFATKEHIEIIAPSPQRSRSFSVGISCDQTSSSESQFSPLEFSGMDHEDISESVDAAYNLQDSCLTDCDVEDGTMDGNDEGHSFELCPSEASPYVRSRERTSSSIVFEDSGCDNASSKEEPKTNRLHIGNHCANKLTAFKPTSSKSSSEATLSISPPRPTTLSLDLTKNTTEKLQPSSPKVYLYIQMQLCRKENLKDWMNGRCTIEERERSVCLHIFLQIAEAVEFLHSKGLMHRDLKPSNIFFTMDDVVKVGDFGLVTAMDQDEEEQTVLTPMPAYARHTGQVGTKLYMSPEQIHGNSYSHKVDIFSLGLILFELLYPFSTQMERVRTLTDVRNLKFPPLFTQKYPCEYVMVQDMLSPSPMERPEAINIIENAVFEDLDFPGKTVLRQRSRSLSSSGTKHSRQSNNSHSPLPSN

Protein RecA = molecular target: T2, Protein RecA (Mycobacterium tuberculosis, UniProt P9WHJ3); test: Fluorescence Cell-Free Homogeneous Dose Retest to Identify Inhibitors of RecA-Intein Splicing Activity. [Related pubchem assays (depositor defined):AID2097, AID2223, AID489010, AID492950]; assay type: functional
T2 sequence (P9WHJ3 whole entry): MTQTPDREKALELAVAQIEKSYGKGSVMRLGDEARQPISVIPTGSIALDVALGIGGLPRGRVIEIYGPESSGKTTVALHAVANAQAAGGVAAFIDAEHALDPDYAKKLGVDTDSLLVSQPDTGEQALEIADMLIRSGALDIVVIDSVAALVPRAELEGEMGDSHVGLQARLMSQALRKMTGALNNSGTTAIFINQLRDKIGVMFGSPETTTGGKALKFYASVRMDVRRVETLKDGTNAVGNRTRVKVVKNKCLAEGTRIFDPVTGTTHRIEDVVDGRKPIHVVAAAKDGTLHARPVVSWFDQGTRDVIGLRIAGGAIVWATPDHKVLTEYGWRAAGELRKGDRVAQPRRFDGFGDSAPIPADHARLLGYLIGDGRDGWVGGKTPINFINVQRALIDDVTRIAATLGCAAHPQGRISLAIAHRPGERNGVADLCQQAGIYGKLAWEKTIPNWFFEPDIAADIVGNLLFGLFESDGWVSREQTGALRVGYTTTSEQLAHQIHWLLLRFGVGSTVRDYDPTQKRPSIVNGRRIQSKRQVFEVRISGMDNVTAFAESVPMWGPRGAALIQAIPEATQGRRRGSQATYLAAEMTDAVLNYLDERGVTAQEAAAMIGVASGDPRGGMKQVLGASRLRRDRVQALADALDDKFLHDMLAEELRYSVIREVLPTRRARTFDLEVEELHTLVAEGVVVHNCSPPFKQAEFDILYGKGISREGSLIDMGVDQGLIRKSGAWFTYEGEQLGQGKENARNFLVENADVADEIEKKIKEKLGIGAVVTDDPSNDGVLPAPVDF

[2] = molecular target: T3, Replicative DNA helicase DnaB (Mycobacterium tuberculosis, UniProt P9WMR3); test: DnaB intein splicing inhibitors, dose response, biochemical, cell-free fluorescence (AID 449749); assay type: functional
T3 sequence (P9WMR3 whole entry): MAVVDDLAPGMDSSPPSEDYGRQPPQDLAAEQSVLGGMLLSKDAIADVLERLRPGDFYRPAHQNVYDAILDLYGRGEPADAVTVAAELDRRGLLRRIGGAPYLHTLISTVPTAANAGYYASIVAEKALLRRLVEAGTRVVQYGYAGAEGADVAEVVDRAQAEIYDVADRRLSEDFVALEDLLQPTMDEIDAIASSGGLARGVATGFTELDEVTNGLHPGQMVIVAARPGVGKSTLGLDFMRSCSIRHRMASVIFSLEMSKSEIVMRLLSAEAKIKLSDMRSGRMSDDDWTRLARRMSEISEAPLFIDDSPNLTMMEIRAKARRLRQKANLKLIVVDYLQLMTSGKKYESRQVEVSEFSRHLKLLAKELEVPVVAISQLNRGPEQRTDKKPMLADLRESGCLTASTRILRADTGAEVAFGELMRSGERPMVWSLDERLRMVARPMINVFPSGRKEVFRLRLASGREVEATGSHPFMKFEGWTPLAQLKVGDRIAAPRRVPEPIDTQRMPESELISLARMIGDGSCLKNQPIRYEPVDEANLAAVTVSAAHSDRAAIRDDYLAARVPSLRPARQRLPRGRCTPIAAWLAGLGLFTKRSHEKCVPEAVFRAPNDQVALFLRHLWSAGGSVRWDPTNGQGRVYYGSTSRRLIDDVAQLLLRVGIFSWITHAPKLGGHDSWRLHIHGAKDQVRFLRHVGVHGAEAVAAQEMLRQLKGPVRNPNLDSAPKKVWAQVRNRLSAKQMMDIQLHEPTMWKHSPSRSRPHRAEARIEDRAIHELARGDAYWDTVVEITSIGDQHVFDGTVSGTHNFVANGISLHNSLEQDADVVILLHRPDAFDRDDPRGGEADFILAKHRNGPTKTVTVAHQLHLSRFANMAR

[3] = molecular target: T1, Eukaryotic translation initiation factor 2-alpha kinase 3; test: Counterscreen assay for PERK inhibitors: Dose response cell-based high throughput screening assay to measure inhibition of PERK at 6 hours. [Related pubchem assays: 1522, 1416 ]; assay type: functional
Nonstructural protein 1 = Nonstructural protein 1 (Influenza A virus, UniProt Q194T2); assay type: functional, Influenza A virus (A/California/07/2009(H1N1))
Chain of Nonstructural protein 1 (Q194T2 whole entry): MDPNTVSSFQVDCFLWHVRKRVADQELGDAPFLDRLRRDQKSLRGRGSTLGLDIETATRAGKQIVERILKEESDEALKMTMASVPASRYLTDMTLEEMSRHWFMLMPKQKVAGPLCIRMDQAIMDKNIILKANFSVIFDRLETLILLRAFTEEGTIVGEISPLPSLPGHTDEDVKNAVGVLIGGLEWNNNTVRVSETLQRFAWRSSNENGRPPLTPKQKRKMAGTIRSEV

[4] = molecular target: T4, Heat shock factor protein 1 (Mus musculus, UniProt P38532); test: inhibition of MG132-induced HSE-luciferase signal, confirmation, cell-based, NIH3T3, luminescence, dose retest (AID 2382); assay type: functional;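 note: NIH3T3 fibroblasts with HSF1-driven luciferase reporter stressed by proteasome inhibitor MG132; luminescence from HSF1-driven luciferase expression after 8 hours of MG132 stress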
T4 sequence (P38532 whole entry): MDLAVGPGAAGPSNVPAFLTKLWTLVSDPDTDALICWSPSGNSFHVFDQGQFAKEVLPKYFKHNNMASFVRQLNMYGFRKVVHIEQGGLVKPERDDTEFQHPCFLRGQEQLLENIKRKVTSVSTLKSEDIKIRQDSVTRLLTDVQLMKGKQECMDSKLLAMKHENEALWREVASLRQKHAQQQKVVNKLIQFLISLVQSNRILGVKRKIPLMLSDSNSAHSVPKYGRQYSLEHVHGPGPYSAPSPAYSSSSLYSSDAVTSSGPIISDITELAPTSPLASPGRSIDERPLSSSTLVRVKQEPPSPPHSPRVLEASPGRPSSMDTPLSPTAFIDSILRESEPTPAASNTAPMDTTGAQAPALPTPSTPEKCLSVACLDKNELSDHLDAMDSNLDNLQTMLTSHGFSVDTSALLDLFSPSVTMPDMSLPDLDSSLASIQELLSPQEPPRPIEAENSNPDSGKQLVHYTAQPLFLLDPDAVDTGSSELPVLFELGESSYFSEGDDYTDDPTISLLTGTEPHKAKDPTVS

[5] = molecular target: T5, Corticotropin-releasing factor receptor 2/Corticotropin-releasing factor-binding protein (Homo sapiens, UniProt P24387+Q13324); test: activators of CRF receptor 2 with binding protein – uHTS hits, confirmation (AID 602473); assay type: functional; conditions: read-out: EC50_Mean
T5 sequence (Q13324 whole entry): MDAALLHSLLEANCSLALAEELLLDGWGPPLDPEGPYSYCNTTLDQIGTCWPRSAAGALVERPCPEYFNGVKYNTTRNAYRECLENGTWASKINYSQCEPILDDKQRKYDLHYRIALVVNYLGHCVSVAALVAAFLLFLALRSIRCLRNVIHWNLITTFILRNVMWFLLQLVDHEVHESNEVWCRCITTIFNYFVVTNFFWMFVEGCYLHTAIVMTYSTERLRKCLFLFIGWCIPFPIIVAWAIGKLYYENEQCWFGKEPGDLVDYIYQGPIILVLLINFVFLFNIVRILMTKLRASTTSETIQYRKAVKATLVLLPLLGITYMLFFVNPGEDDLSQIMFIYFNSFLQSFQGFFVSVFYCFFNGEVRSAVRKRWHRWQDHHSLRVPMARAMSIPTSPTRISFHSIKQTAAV
T5 sequence (P24387 whole entry): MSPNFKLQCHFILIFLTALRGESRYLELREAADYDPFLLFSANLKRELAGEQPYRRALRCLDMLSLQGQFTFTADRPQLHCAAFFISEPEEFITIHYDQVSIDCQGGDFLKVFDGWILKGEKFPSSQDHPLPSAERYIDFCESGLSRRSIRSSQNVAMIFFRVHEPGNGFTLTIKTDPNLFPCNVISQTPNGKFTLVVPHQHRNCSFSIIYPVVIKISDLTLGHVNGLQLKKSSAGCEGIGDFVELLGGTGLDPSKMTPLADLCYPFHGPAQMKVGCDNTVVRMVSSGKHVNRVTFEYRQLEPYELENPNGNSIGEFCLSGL

[6] = AlphaScreen signal interference compounds, dose response, artefact control for ARNT-TACC3 interaction inhibitor project, biochemical, luminescence, cherry-pick (AID 651705); assay type: functional;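 note: AlphaScreen bead proximity signal that flags compounds interfering with the detection technology; potency reflects signal decrease which marks the compound as an assay artifact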

Structure (SMILES)	GI50 (P388/ADR)	GI50 (SN12K1)	GI50 (P388)	AC50 (HEK293)	further results
C/C=C1\NC(=O)[C@H]2CSSCCC=C[C@H](CC(=O)N[C@H](C(C)C)C(=O)N2)OC(=O)[C@H](C(C)C)NC1=O	< 0.0241 µM (active)	< 0.01 µM (active)	< 0.01 µM (active)		
Cc1ccccc1-n1nc(C)c2cc(C(=O)NC3CC3)sc21				196 µM (active)	
O=C1CSc2sc(=S)sc2S1	27.7 µM (inactive)	> 100 µM (inactive)	31.2 µM (inactive)		
CN1N=C(C(C)(C)C)CC1=O					EC50 [1]: > 55.7 µM (not active); EC50 (Protein RecA): 2.5 µM (active); AC50 [2]: 9.6 µM (active); EC50 [3]: > 55.7 µM (not active)
Cc1cc(O)nc(NN=Cc2cc(Br)ccc2O)n1				5.26 µM (active)	IC50 (Nonstructural protein 1): 12.2 µM (active)
CCN1C(=O)C(=CNc2ccc(N3CCOCC3)c(Br)c2)C(=O)N(CC)C1=S				> 350 µM (inactive)	EC50 [4]: > 195 µM (not active); EC50 [5]: > 53 µM (inactive)
N#CC1=C(N)Oc2c(ccc3cccnc23)C1c1ccncc1 (stereo not given)					AC50 [6]: 99.4 µM (active)
O=C1Nc2ccccc2Nc2ccncc21	> 31.6 µM (inactive)	> 100 µM (inactive)	> 100 µM (inactive)		
Cc1ccc(C(=O)Nc2cccc(C(F)(F)F)c2)cc1Nc1[nH]cnc2ncnc1-2				7.93 µM (active)	
C[S+]([O-])c1cc(=O)c2ccccc2s1 (stereo not given)	2.66 µM (inactive)	17.8 µM (inactive)	1.83 µM (inactive)		
Cc1[nH]c(=O)[nH]c(=O)c1/C=C/C(=O)NC(CO)C[S+]([O-])C[S+](C)[O-] (stereo not given)	23.2 µM (inactive)	9.38 µM (inactive)	19.4 µM (inactive)		
CC(=O)OCC1OC(n2cc(F)c(=O)[nH]c2=O)C(N)C(OC(C)=O)C1OC(C)=O (stereo not given)	> 100 µM (inactive)	> 100 µM (inactive)	> 100 µM (inactive)		
